15 compounds from patent publication US11897865B2, “ABHD12 inhibitors and methods of making and using same” (THE SCRIPPS RESEARCH INSTITUTE, priority 2018, dated 2024) can be followed below.

The target of one assay is T1, ABHD12 (Mus musculus, UniProt Q99LR1).
T1 construct: from tissue; host or cells: brain membrane proteome
T1 sequence (Q99LR1 1-398): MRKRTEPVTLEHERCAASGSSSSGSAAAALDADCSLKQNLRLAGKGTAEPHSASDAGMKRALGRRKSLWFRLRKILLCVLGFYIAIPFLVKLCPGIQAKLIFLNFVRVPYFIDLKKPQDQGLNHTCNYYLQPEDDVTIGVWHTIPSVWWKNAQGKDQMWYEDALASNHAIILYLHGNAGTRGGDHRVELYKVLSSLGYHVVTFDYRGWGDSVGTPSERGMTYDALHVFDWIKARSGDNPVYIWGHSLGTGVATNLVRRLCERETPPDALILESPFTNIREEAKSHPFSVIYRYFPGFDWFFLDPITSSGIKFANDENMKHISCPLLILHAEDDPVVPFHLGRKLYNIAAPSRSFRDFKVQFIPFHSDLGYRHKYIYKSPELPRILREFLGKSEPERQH
As to the kind of experiment: Gel-based competitive ABPP, JJH350 probe vs brain membrane proteome. The following applies: 10 μM compound, read-out: % Inhibition @ 10 μM (ABPP gel_JJH350 probe vs brain mem). In kind it is biochemical. As to the method:
Gel-Based Competitive ABPP for In Vitro Inhibitor Treatment of Proteomes:
Gel-based ABPP assays were performed as previously reported (Bachovchin, D. A. et al. Superfamily-wide portrait of serine hydrolase inhibition achieved by library-versus-library screening. Proc. Natl. Acad. Sci. U. S. A. 2010, 107, 20941-20946). Cell or tissue proteomes (50 μL, 1 mg/mL) were treated with either FP-Rh (1 μM final concentration) or JJH350 (2 μM final concentration) for 45 min at 37° C. For FP-Rh labeled samples, the reactions were quenched by adding 20 μL of 4× SDS-PAGE loading buffer. The 30 μL of the quenched samples were loaded on gel for analysis. For (S)-1,3-dioxo-7-(4-phenoxybenzoyl)hexahydroimidazo[1,5-a]pyrazin-2(3H)-yl 4-(4-(prop-2-yn-1-yloxy)phenyl)piperazine-1-carboxylate (JJH350)-labeled samples, copper-catalyzed azide-alkyne cycloaddition (CuAAC) was used for visualizing the labeled proteins following the reported protocol. Briefly, rhodamine-PEG3-N3 (1 μL/reaction, 1.25 mM in DMSO), CuSO4 (1 μL/reaction, 50 mM in H2O), TBTA (3 μL/reaction, 1.7 mM in DMSO/t-BuOH [1:4, v/v]) and tris(2-carboxyethyi)phosphine (TCEP) (1 μL/reaction, 50 mM in H2O, freshly prepared) were premixed. 6 μL of this click reagent mixture was immediately added to each JJH350-labeled samples (50 μL, 1 mg/mL) and incubated for 1 h at room temperature. The reactions were quenched by adding 20 μL of 4× SDS-PAGE loading buffer. The 40 μL of the quenched samples were loaded on a gel for analysis.
After separation by SDS-PAGE (10% acrylamide), samples were visualized by in-gel fluorescence scanning using the ChemiDoc MP system (Bio-Rad). Band intensities were quantified using the Image Lab (5.2.1) software (Bio-Rad).
For the compound `Cc1cnc(N2CCC(NC(=S)Nc3cccnc3)CC2)c(Cl)c1` [Example 8, 1-(1-(3-Chloro-5-methylpyridin-2-yl)piperidin-4-yl)-3-(pyridin-3-yl)thiourea], the inhibition at 10 µM was no less than 75%.

Take `FC(F)(F)c1cnc(N2CCC(NC(=S)Nc3ccccc3)CC2)c(Cl)c1` [Example 9, 1-(1-(3-Chloro-5-(trifluoromethyl)pyridin-2-yl)piperidin-4-yl)-3-phenylthiourea]: the inhibition at 10 µM is no less than 75%.

On to `S=C(Nc1cccnc1)NC1CCN(c2ccc(Cl)cn2)CC1` [Example 11, 1-(1-(5-Chloropyridin-2-yl)piperidin-4-yl)-3-(pyridin-3-yl)thiourea], for which the inhibition at 10 µM was no less than 75%.

Consider `Fc1ccc(N2CCC(NC(=S)Nc3cccnc3)CC2)nc1` [Example 12, 1-(1-(5-Fluoropyridin-2-yl)piperidin-4-yl)-3-(pyridin-3-yl)thiourea], for which the inhibition at 10 µM was no less than 75%.

As for `FC(F)(F)Oc1ccc(N2CCC(NC(=S)Nc3cccnc3)CC2)nc1` [Example 13, 1-(Pyridin-3-yl)-3-(1-(5-(trifluoromethoxy)pyridin-2-yl)piperidin-4-yl)thiourea], the inhibition at 10 µM was no less than 75%.

Regarding `S=C(Nc1cccnc1)NC1CCN(c2ncccc2Cl)CC1` [Example 17, 1-(1-(3-Chloropyridin-2-yl)piperidin-4-yl)-3-(pyridin-3-yl)thiourea], the inhibition at 10 µM lay within 50 to 75%.

Regarding `FC(F)(F)c1cc(Cl)cnc1N1CCC(NC(=S)Nc2cccnc2)CC1` [Example 18, 1-(1-(5-Chloro-3-(trifluoromethyl)pyridin-2-yl)piperidin-4-yl)-3-(pyridin-3-yl)thiourea], the inhibition at 10 µM is no less than 75%.

As for `S=C(Nc1cccnc1)NC1CCN(c2ccc(Cl)nc2)CC1` [Example 19, 1-(1-(6-Chloropyridin-3-yl)piperidin-4-yl)-3-(pyridin-3-yl)thiourea], the inhibition at 10 µM lay within 0 to 25%.

On to `Fc1cc(C(F)(F)F)cnc1N1CCC(NC(=S)Nc2cccnc2)CC1` [Example 21, 1-(1-(3-Fluoro-5-(trifluoromethyl)pyridin-2-yl)piperidin-4-yl)-3-(pyridin-3-yl)thiourea], for which the inhibition at 10 µM is no less than 75%.

In the case of `FC(F)(F)Oc1ccc(-c2ccnc(N3CCC(NC(=S)Nc4cccnc4)CC3)c2)cc1` [Example 22, 1-(Pyridin-3-yl)-3-(1-(4-(4-(trifluoromethoxy)phenyl)pyridin-2-yl)piperidin-4-yl)thiourea], the inhibition at 10 µM is no less than 75%.

Take `FC(F)(F)Oc1cccc(-c2ccnc(N3CCC(NC(=S)Nc4cccnc4)CC3)c2)c1` [Example 23, 1-(Pyridin-3-yl)-3-(1-(4-(3-(trifluoromethoxy)phenyl)pyridin-2-yl)piperidin-4-yl)thiourea]: the inhibition at 10 µM was no less than 75%.

For the compound `FC(F)(F)c1ccccc1-c1ccnc(N2CCC(NC(=S)Nc3cccnc3)CC2)c1` [Example 24, 1-(pyridin-3-yl)-3-(1-(4-(2-(trifluoromethyl)phenyl)pyridin-2-yl)piperidin-4-yl)thiourea], the inhibition at 10 µM was 50 to 75%.

The same assay, now with this note: at 2 uM compound.
Consider `C#Cc1ccc(N2CCC(NC(=S)Nc3cccnc3)CC2)nc1` [Example 10, 1-(1-(5-Ethynylpyridin-2-yl)piperidin-4-yl)-3-(pyridin-3-yl)thiourea], for which the “% Inhibition (ABPP gel_JJH350 probe vs brain mem), at 2 uM” value is “C (at 2 uM) (% inhibition is greater than or equal to 25% and less than 50%)”.

With `C#Cc1cnc(N2CCC(NC(=S)Nc3cccnc3)CC2)c(Cl)c1` [Example 20, 1-(1-(3-Chloro-5-ethynylpyridin-2-yl)piperidin-4-yl)-3-(pyridin-3-yl)thiourea], the “% Inhibition (ABPP gel_JJH350 probe vs brain mem), at 2 uM” value is “B (at 2 uM) (% inhibition is greater than or equal to 50% and less than 75%)”.

Still in this assay, the particulars now being: read-out: IC50 (ABPP gel_JJH350 probe vs brain mem).
As for `O=C(Nc1cccnc1)NC1CCN(c2nccc(Oc3ccc(OC(F)(F)F)cc3Cl)c2Cl)CC1` [Example 6, 1-(1-(3-Chloro-4-(2-chloro-4-(trifluoromethoxy)phenoxy)pyridin-2-yl)piperidin-4-yl)-3-(pyridin-3-yl)urea], the IC50 lay within 100 to 1000 nM.
